The text below walks through data of patent publication US20170231966A1, “INHIBITION OF IL-2 PRODUCTION” (AYUMI PHARMACEUTICAL CORPORATION, priority 2013, published 2017).

Counter-ions that a name gives are not always drawn.

The test has as its system transcriptional activation of IL-2. As to the kind of experiment: IL-2 transcriptional activation Luciferase Assay (IL-2 Gene Promoter Reporter Vector) in A23187-stimulated Jurkat cells. Type of test: cell-based, human. Particulars: for Action on A23187-accelerated transcriptional activation of IL-2 (in words) / Inhibition ratio (transcriptional activation of IL-2), Table 2 / Inhibiting ratio of IL-2 transcriptional activation: A23187-stimulated Jurkat cells; for Luc activity value, No stimulation / Luc activity value, Stimulated by A23187: Jurkat cells, 24 hours, average ± standard deviation, n=3; for Luc activity value, No stimulation: no A23187, DMSO = 1; for Luc activity value, Stimulated by A23187: A23187 0.3 μM, unstimulated DMSO = 1.

As to `CCOCCN(CCCOc1ccc(OC)cc1C1Sc2cc(Cl)ccc2N1C(C)=O)C(C)C.Cl` (racemic) [Compound 3, (±)-3-acetyl-6-chloro-2-[2-(3-(N-(2-ethoxyethyl)-N-isopropylamino)propoxy)-5-methoxyphenyl]benzothiazoline hydrochloride], the “Action on A23187-accelerated transcriptional activation of IL-2 (in words)” value (“Action” below) is given as “inhibited transcriptional activation of IL-2”. Also, the “Inhibition ratio (transcriptional activation of IL-2), Table 2” value (“Inhibition ratio” for short) (compound 10 μM) worked out at 77%.
For the compound `CCOCCN(CCCOc1ccc(OC)cc1C1Sc2cc(Cl)ccc2N1C(C)=O)C(C)C` (single isomer, unassigned; (+)) [Compound 2, (+)-3-acetyl-6-chloro-2-[2-(3-(N-(2-ethoxyethyl)-N-isopropylamino)propoxy)-5-methoxyphenyl]benzothiazoline (+O,O′-diacetyl-L-tartaric acid salt], the “Action” value was “statistically significant inhibiting action”. Where the note is “compound 0.3 μM”, the “Luc activity value, No stimulation” value stood at 0.8842 ± 0.1143; the “Luc activity value, Stimulated by A23187” value is 81.9510 ± 30.4537; the “Inhibiting ratio of IL-2 transcriptional activation” value (from here on “Inhibiting ratio”) is 12%. For the setting “compound 1 μM”, the “Luc activity value, No stimulation” value stood at 0.9410 ± 0.0598; the “Luc activity value, Stimulated by A23187” value worked out at 65.0761 ± 13.2402; the “Inhibiting ratio” value turned out to be 30%. For the same compound, for the setting “compound 10 μM”, the “Luc activity value, No stimulation” value stood at 0.9469 ± 0.0928; the “Luc activity value, Stimulated by A23187” value is reported as 27.5064 ± 29.2861; the “Inhibiting ratio” value was 70%.
Consider `COc1ccc(OCCCN(CCO)C(C)C)c(C2Sc3cc(Cl)ccc3N2C(C)=O)c1.Cl` (single isomer, unassigned; (+)) [Compound 4, (+)-3-acetyl-6-chloro-2-[2-(3-(N-(2-hydroxyethyl)-N-isopropylamino)propoxy)-5-methoxyphenyl]benzothiazoline hydrochloride], for which the “Action” value is “inhibited transcriptional activation of IL-2”. The “Inhibition ratio” value (compound 10 μM) turned out to be 38%.
As for `CN(C(=O)C(c1ccccc1)c1ccccc1)[C@H](CN1CC[C@H](O)C1)c1ccccc1` [Asimadoline, asimadoline, reference compound], the “Inhibition ratio” value (compound 10 μM) amounted to 19%.
Take `COCCN(CCCOc1ccc(OC)cc1C1Sc2cc(Cl)ccc2N1C(C)=O)C(C)C` [Compound 5, (+)-3-acetyl-6-chloro-2-[2-(3-(N-isopropyl-N-(2-methoxyethyl)amino)propoxy)-5-methoxyphenyl]benzothiazoline (−)-O,O′-diacetyl-L-tartaric acid salt]: the “Action” value is on record as “inhibited transcriptional activation of IL-2”. For the same compound, the “Inhibition ratio” value (compound 10 μM) is on record as 72%.
